Reference: patent publication US20110294874A1, “DIAGNOSIS AND THERAPY OF ORGAN DYSFUNCTION USING SPHINGANINE-1-PHOSPHATE” (The Trustees of Columbia University in the City of New York, priority 2008, published 2011)
Where “and” joins values, the source holds several entries; their conditions need not be identical. Equal values may be shown once. Blank lines part the entries; values can stand above or below the compound they belong to.

What was measured:
[1] = test system: C57BL/6 mice subjected to liver IR; assay: Murine model of liver ischemia reperfusion (hepatic IR): plasma ALT and creatinine; format: in vivo, mouse; details: for Effect of pre-treatment on Sg1P-mediated renal and hepatic protection after liver IR: given prior to Sg1P treatment, serum creatinine and ALT; for Serum creatinine (mean) / Serum ALT (mean): C57BL/6 mice, 60 min liver ischemia, 24 h reperfusion; for Effect of pretreatment alone on kidney injury resulting from liver IR / Effect of pretreatment alone on liver injury resulting from liver IR: antagonist alone, no Sg1P
[2] = test system: C57BL/6 mice subjected to liver IR; assay: Liver H&E histology after liver IR (percent necrosis, Suzuki score); format: in vivo, mouse; details: pre-treatment prior to Sg1P treatment
Description: Mice were anesthetized with intraperitoneal pentobarbital (50 mg/kg or to effect). Mice were placed under a heating lamp and on a 37° C. heating pad. After a midline laparotomy and intraperitoneal application of 20 U heparin, left lateral and median lobes of the liver were subjected to ischemia with a microaneurysm clip occluding the hepatic triad above the bifurcation. This method of partial hepatic ischemia results in a segmental (˜70%) hepatic ischemia but spares the right lobe of the liver and prevents mesenteric venous congestion by allowing portal decompression throughout the right and caudate lobes of the liver. The liver was then repositioned in the peritoneal cavity in its original location for 60 minutes. The liver was kept moist with gauze soaked in 0.9% normal saline. The body temperature was monitored by an infrared temperature sensor (Linear Laboratories, Fremont, Calif.) every 10 min. and maintained at 37° C. using a heating lamp and a heating pad. After 60 minutes, the liver was reperfused and the wound closed. Sham-operated mice were subjected to laparotomy and identical liver manipulations without vascular occlusion. Two, 4 and 24 hr after reperfusion, plasma was collected for the measurement of alanine aminotransferase (ALT), a common indicator of liver damage, as well as creatinine (Cr) a common indicator of kidney damage. The liver tissue subjected to IR was collected to measure percent liver necrosis (2, 4 and 24 hr after IR), neutrophil infiltration (with immunohistochemistry, 4 and 24 hr after IR), apoptosis (with terminal deoxynucleotidyl transferase-mediated dUTP nick end labeling staining, caspase 3 immunoblotting and DNA laddering, 24 hr after IR), and inflammation by RT-PCR for pro-inflammatory mRNAs (4 hr after IR).
Livers were also analyzed for the degree of hepatocellular damage using the Suzuki's criteria (Suzuki et al., Transplantation 1993, Vol. 55, pp. 1265-1272). To obtain a Suzuki score, 3 liver injury indices are graded: sinusoidal congestion (0-4), hepatocyte necrosis (0-4), and ballooning degeneration (0-4) are graded for a total score of 0-12. No necrosis, congestion, or centrilobular ballooning is given a score of 0 whereas severe congestion/ballooning and >60% lobular necrosis is given a value of 4.

[3] = test system: C57BL/6 mice subjected to liver IR; assay: Kidney H&E histology after liver IR; format: in vivo, mouse; details: pre-treatment prior to Sg1P
Excerpt: Liver IR-induced AKI in mice shared similar histological changes observed in human AKI associated with liver failure, as observed in H&E slides of kidney sections taken from the mice (see FIG. 3). Multifocal acute tubular injury including individual cell necrosis involving the juxtamedullary proximal tubules of the S3 segment was observed. […] Endothelial apoptosis of peritubular capillaries was also visible in H&E sections as linear arrays of apoptotic bodies corresponding to the interstitial capillary lining endothelium. […] The number of glomeruli with detectable juxtaglomerular apparatus and the number of cells per juxtaglomerular apparatus were both increased after liver IR, indicating hyperplasia of the juxtaglomerular apparatus. […] Liver IR produced large necrotic areas of liver tissue. The average percentage of necrotic areas in liver samples taken from liver IR mice were 92%±2% (n=6), while no necrosis was found in sham-operated mice. Livers were also analyzed for the degree of hepatocellular damage.

[4] = test system: SK1 KO mice subjected to liver IR; assay: Liver IR in SK1 KO mice: plasma ALT and creatinine; format: in vivo, mouse; details: SK1KO, hepatic IR 24 h
Description: (§1) The effects of administering Sg1P (0.1 mg/kg i.v. and 0.2 mg/kg s.c.) on liver and renal injury were also determined in the KO mice and are also shown in Tables 9 and 10 below.

[5] = test system: SK2 KO mice subjected to liver IR; assay: Liver IR in SK2 KO mice: plasma ALT and creatinine; format: in vivo, mouse; details: SK2KO, hepatic IR 24 h
Description: as §1

[6] = mouse, in vivo
[7] = test system: SK-deficient mice subjected to liver IR; assay: Liver IR in SK-deficient mice (subtype not stated); format: in vivo, mouse; details: liver IR (data not shown)
Description: as §1

S1P1 and S1P3 receptors = details: cited from earlier work
[8] = 0.1 mg/kg i.v. and 0.2 mg/kg s.c.

Compound: CCCCCCCCCCCC1N[C@H](C(=O)O)CS1 (some centres unmarked) [BML-241]
Effect of pre-treatment on Sg1P-mediated renal and hepatic protection after liver IR [1]: did not block

Compound: CCCCCCCCc1ccc(CCC(N)(CO)CO)cc1 [FTY720]
Serum creatinine (mean) [1]: 0.65 ± 0.06 mg/dL
serum ALT ([1]; liver IR, 1 mg/kg i.p. 30 min. prior to liver ischemia and 5 min prior to reperfusion, in U/L): 6435±944

Compound: Cc1nn(C)c2nc(NNC(=O)Nc3cc(Cl)nc(Cl)c3)cc(C(C)C)c12 [JTE-013]
Effect of pre-treatment on Sg1P-mediated renal and hepatic protection after liver IR [1]: did not block

Compound: CC(=N)NCCC[C@H](N)C(=O)O [L-NIO]
Effect of pre-treatment on Sg1P-mediated renal and hepatic protection after liver IR [1]: had no effects

Compound: COc1cccc(-c2cc(=O)c3ccccc3o2)c1N [PD98059]
Effect of pre-treatment on Sg1P-mediated renal and hepatic protection after liver IR [1]: prevented
Necrotic areas in the liver after IR [2]: increased significantly
Effect of pre-treatment on protective effects of Sg1P on renal histology [3]: reduced the protective effects

Rescue of serum Sg1P levels [6]: completely rescued
Compound: CCCCCCCCCCCCC/C=C/[C@@H](O)[C@@H](N)COP(=O)(O)O [S1P, sphingosine-1-phosphate]
Serum ALT (mean) [1]: 9178±1822 U/L and 9178 U/L
Serum creatinine (mean) [1]: 0.72 ± 0.13 mg/dL and 0.72 mg/dL
Creatinine (mean) [4]: 1.035 mg/dL
ALT (mean) [4, 8]: 17416.67 U/L
Creatinine (mean) [5]: 0.880 mg/dL
ALT (mean) [5, 8]: 13165.08 U/L

Compound: FC(F)(F)c1cccc(-c2noc(-c3cc(-c4ccccc4)c(C(F)(F)F)s3)n2)c1 [SEW2871]
Serum ALT (mean) [1]: 6502±552 U/L
Serum creatinine (mean) [1]: 0.63 ± 0.08 mg/dL

Compound: CCCCCCCCCCCCCCC[C@@H](O)[C@@H](N)CO [Sphinganine, sphinganine]
Serum ALT (mean) [1]: 7170 U/L
Serum creatinine (mean) [1]: 0.58 mg/dL
Serum ALT (mean) ([1]; listed as sphinganine): 7170±1282 U/L
Serum creatinine (mean) ([1]; listed as sphinganine): 0.58 ± 0.05 mg/dL
Kidney protection [7]: failed to provide kidney protection
Protective effect on the liver [7]: failed to provide protective effect on the liver

Compound: CCCCCCCCCCCCC/C=C/[C@@H](O)[C@@H](N)CO [Sphingosine, sphingosine]
Serum ALT (mean) [1]: 9269 U/L
Serum creatinine (mean) [1]: 0.76 mg/dL
Serum ALT (mean) ([1]; listed as sphingosine): 9269±583 U/L
Serum creatinine (mean) ([1]; listed as sphingosine): 0.76 ± 0.06 mg/dL

Compound: CCCCCCCCc1cccc(NC(=O)[C@H](N)COP(=O)(O)O)c1 [VPC]
Serum ALT (mean) [1]: 18253 U/L
Serum creatinine (mean) [1]: 1.61 mg/dL
Serum ALT (mean) ([1]; listed as VPC 23019): 18253±1709 U/L
Effect of pretreatment alone on kidney injury resulting from liver IR [1]: exacerbated kidney injury
Effect of pretreatment alone on liver injury resulting from liver IR [1]: exacerbated liver injury
Selectivity for S1P1 (over S1P3) (S1P1 and S1P3 receptors): 50 fold

Compound: CCCCCCc1cccc(NC(=O)[C@H](N)CCP(=O)(O)O)c1 [W146]
Inhibition of Sg1P-mediated renal and hepatic protection ([1]; 0.1 mg/kg (i.p.) 10 minutes prior to liver ischemia): completely inhibit
Serum ALT (mean) [1]: 24452±1760 U/L and 24451 U/L
Serum creatinine (mean) [1]: 1.6 ± 0.2 mg/dL and 1.55 mg/dL
Effect of pretreatment alone on kidney injury resulting from liver IR [1]: exacerbated kidney injury
Effect of pretreatment alone on liver injury resulting from liver IR [1]: exacerbated liver injury
Inhibition of Sg1P's protective effects against liver and kidney injury ([1]; pre-treatment 0.01-0.2 mg/kg): dose-dependent
Necrotic areas in the liver after IR [2]: increased significantly
Effect of pre-treatment on protective effects of Sg1P on renal histology [3]: reduced the protective effects

Compound: pertussis toxin
Effect of pre-treatment on Sg1P-mediated renal and hepatic protection after liver IR [1]: prevented
Necrotic areas in the liver after IR [2]: increased significantly
Effect of pre-treatment on protective effects of Sg1P on renal histology [3]: reduced the protective effects
